Results published in patent US20230348376A1 (TEIJIN PHARMA LIMITED, priority 2020, published 2023).
One block for each molecule: values may come before it.

Tests used:
[1] = tested on: rat oligodendrocyte progenitor cells; assay: Promotive activity of rat oligodendrocyte progenitor cell differentiation-2 (immunostaining of MBP); type: cell-based; details: vitamin D derivative 2 μM, T3 30 nM, 4 days
Experimental: The promotive activity of oligodendrocyte progenitor cell (OPC) differentiation of the vitamin D derivatives was evaluated by immunostaining of MBP.
Subsequently, oligodendrocyte progenitor cell separation medium was added to the flask, and the mixture was similarly shaken for about 22 hours (37° C., 200 rpm), and the supernatant was collected to prepare oligodendrocyte progenitor cells.

[2] = Evaluation of brain penetration in mice (blood and brain concentration at brain Cmax); type: in vivo, mouse; details: 1 mg/kg single oral dose, C57BL/6J mice; for Concentration in blood (mean ± SD) at brain Cmax / Concentration in brain (mean ± SD) at brain Cmax: n=3; for Kp: male, C57BL/6J, mouse, brain/plasma, po, 1 mg/kg, read-out: Concentration in brain/in blood ratio at brain Cmax
Experimental: The administration solution was administered orally to C57BL/6J mice (8 weeks old, male, n=3) at a single dose (1 mg/kg). Mice were euthanized at 6 points of 0.25, 0.5, 1, 2, 4, and 8 hours after administration, and plasma and brain sampling were performed. After preparing a homogenate from the collected brain using Tissue Lyser II (QIAGEN #85300), acetonitrile was added to the homogenate and the homogenate was centrifuged (12000 rpm, 5 minutes) to extract the administered test compound contained in the brain. Similarly, the plasma was subjected to addition of acetonitrile and centrifugal separation to extract the administered test compound contained in the plasma. Each extracted sample was subjected to measurement of the concentration of administered test compound using LC/MS/MS (SHIMADZU UFLC/MS/MS (8050)).
Test 2 [0.2 mg/kg Administration Study] […] The administration solution was administered orally to C57BL/6J mice (8 weeks old, male, n=3) at a single dose (0.2 mg/kg). Mice were euthanized at 6 points of 0.25, 0.5, 1, 2, 4, and 8 hours after administration, and plasma and brain sampling were performed. After preparing a homogenate from the collected brain using Tissue Lyser II (QIAGEN #85300), acetonitrile was added to the homogenate and the homogenate was centrifuged (12000 rpm, 5 minutes) to extract the administered compound contained in the brain. Similarly, the plasma was subjected to addition of acetonitrile and centrifugal separation to extract the administered test compound contained in the plasma. Each extracted sample was subjected to measurement of the concentration of administered test compound using LC/MS/MS (SHIMADZU UFLC/MS/MS (8050)).

human VDR = biological target: T1, human VDR (Homo sapiens, UniProt P11473); assay: Evaluation of VDR transcription activity in human osteoblasts (HOS cells), luciferase reporter; details: Activity (EC50, VDR transcription activity), HOS cells transfected with human VDR, human RXRα and DR3 luciferase reporter; 21 hours
T1 sequence (P11473 1-427): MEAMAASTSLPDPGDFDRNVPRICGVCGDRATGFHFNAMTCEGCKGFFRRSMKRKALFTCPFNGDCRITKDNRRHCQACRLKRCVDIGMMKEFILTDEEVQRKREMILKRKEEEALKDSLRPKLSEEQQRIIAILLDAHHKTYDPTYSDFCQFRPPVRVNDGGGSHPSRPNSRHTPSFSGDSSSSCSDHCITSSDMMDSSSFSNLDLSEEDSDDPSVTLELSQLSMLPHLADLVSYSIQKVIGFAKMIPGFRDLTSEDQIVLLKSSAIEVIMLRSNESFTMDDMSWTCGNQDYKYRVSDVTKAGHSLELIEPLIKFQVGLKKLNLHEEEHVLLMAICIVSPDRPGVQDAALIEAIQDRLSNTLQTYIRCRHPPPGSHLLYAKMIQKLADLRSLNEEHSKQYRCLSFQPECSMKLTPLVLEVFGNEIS
T1 sequence (P19793 1-462 partner): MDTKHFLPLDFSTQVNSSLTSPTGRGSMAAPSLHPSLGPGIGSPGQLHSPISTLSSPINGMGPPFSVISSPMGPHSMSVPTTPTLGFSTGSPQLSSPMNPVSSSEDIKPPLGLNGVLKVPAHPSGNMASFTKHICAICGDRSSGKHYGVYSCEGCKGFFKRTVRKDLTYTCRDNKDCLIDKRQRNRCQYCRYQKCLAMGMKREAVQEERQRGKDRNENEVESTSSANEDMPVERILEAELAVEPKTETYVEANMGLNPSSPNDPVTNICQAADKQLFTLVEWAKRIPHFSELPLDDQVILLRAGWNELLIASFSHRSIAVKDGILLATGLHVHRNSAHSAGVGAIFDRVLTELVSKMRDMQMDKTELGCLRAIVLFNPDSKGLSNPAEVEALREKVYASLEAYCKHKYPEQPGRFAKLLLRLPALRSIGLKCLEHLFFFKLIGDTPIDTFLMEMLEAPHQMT

Concentration in blood (mean ± SD) at brain Cmax [2]: 849 ± 40 nM
Concentration in brain (mean ± SD) at brain Cmax [2]: 566 ± 89 pmol/g
Kp [2]: 0.67
EC50 (human VDR): < 0.001 µM
SMILES: C=C1[C@H](O)CC(=C/C=C2\CCC[C@]3(C)[C@@H]([C@H](C)CN4CCCC(O)(C(F)F)C4)CC[C@@H]23)C[C@H]1O (single isomer, unassigned) [Compound C036a]
Mean (number of MBP-positive cells/number of Hoechst33342-positive cells) ([1]; Test 2): 0.53

Concentration in blood (mean ± SD) at brain Cmax [2]: 207 ± 59 nM
Concentration in brain (mean ± SD) at brain Cmax [2]: 317 ± 19 pmol/g
Kp [2]: 1.53
EC50 (human VDR): 0.001 to 0.01 µM
SMILES: C=C1[C@H](O)CC(=C/C=C2\CCC[C@]3(C)[C@@H]([C@H](C)CN4CC[C@@H](CC(F)F)C4)CC[C@@H]23)C[C@H]1O [Compound B041, (1R,3R)-5-(2-((1R,3aS,7aR,E)-1-((S)-1-((S)-3-(2,2-difluoroethyl)pyrrolidin-1-yl)propan-2-yl)-7a-methyloctahydro-4H-inden-4-ylidene)ethylidene)-2-methylenecyclohexane-1,3-diol]
Mean (number of MBP-positive cells/number of Hoechst33342-positive cells) ([1]; Test 1): 0.56

Concentration in blood (mean ± SD) at brain Cmax [2]: 72 ± 11 nM
Concentration in brain (mean ± SD) at brain Cmax [2]: 38 ± 12 pmol/g
Kp [2]: 0.53
EC50 (human VDR): 0.1 to 1 µM
SMILES: C[C@H](CN1CC[C@@H](CCC(F)F)C1)[C@H]1CC[C@H]2/C(=C/C=C3C[C@@H](O)C[C@H](O)C3)CCC[C@]12C [Compound B064, (1R,3R)-5-(2-((1R,3aS,7aR,E)-1-((S)-1-((R)-3-(3,3-difluoropropyl)pyrrolidin-1-yl)propan-2-yl)-7a-methyloctahydro-4H-inden-4-ylidene)ethylidene)cyclohexane-1,3-diol]
Mean (number of MBP-positive cells/number of Hoechst33342-positive cells) ([1]; Test 2): 0.61

Concentration in blood (mean ± SD) at brain Cmax [2]: 78 ± 15 nM
Concentration in brain (mean ± SD) at brain Cmax [2]: 67 ± 9 pmol/g
Kp [2]: 0.86
SMILES: C[C@H](CN1CC[C@@H](OCC(F)F)C1)[C@H]1CC[C@H]2/C(=C/C=C3C[C@@H](O)C[C@H](O)C3)CCC[C@]12C [Compound B058, (1R,3R)-5-(2-((1R,3aS,7aR,E)-1-((S)-1-((R)-3-(2,2-difluoroethoxy)pyrrolidin-1-yl)propan-2-yl)-7a-methyloctahydro-4H-inden-4-ylidene)ethylidene)cyclohexane-1,3-diol]
Mean (number of MBP-positive cells/number of Hoechst33342-positive cells) ([1]; Test 2): 0.49

SMILES: C=C1/C(=C\C=C2/CCC[C@]3(C)[C@@H]([C@H](C)CN4CCOC[C@@H]4C)CC[C@@H]23)C[C@@H](O)C[C@@H]1O [Compound F004, (1R,3S,Z)-5-(2-((1R,3aS,7aR,E)-7a-methyl-1-((S)-1-((S)-3-methylmorpholino)propan-2-yl)octahydro-4H-inden-4-ylidene)ethylidene)-4-methylenecyclohexane-1,3-diol]
Mean (number of MBP-positive cells/number of Hoechst33342-positive cells) ([1]; Test 3): 0.37

SMILES: COC(C)(C)[C@H]1CCCN1C[C@@H](C)[C@H]1CC[C@H]2/C(=C/C=C3C[C@@H](O)C[C@H](O)C3)CCC[C@]12C [Compound G015, (1R,3R)-5-(2-((1R,3aS,7aR,E)-1-((S)-1-((R)-2-(2-methoxypropan-2-yl)pyrrolidin-1-yl)propan-2-yl)-7a-methyloctahydro-4H-inden-4-ylidene)ethylidene)cyclohexane-1,3-diol]
Mean (number of MBP-positive cells/number of Hoechst33342-positive cells) ([1]; Test 6): 0.52

SMILES: C[C@H](CN1CCCC[C@@H]1C)[C@H]1CC[C@H]2/C(=C/C=C3C[C@@H](O)C[C@H](O)C3)CCC[C@]12C [Compound G001, (1R,3R)-5-(2-((1R,3aS,7aR,E)-7a-methyl-1-((S)-1-((S)-2-methylpiperidin-1-yl)propan-2-yl)octahydro-4H-inden-4-ylidene)ethylidene)cyclohexane-1,3-diol]
Mean (number of MBP-positive cells/number of Hoechst33342-positive cells) ([1]; Test 3): 0.34

SMILES: C[C@H](CN1CCOC[C@@H]1C1CC1)[C@H]1CC[C@H]2/C(=C/C=C3C[C@@H](O)C[C@H](O)C3)CCC[C@]12C [Compound G008, (1R,3R)-5-(2-((1R,3aS,7aR,E)-1-((S)-1-((S)-3-cyclopropylmorpholino)propan-2-yl)-7a-methyloctahydro-4H-inden-4-ylidene)ethylidene)cyclohexane-1,3-diol]
Mean (number of MBP-positive cells/number of Hoechst33342-positive cells) ([1]; Test 5): 0.36

SMILES: C[C@H](CN1CCN(C)C[C@H]1C)[C@H]1CC[C@H]2/C(=C/C=C3C[C@@H](O)C[C@H](O)C3)CCC[C@]12C [Compound G012, (1R,3R)-5-(2-((1R,3aS,7aR,E)-1-((S)-1-((R)-2,4-dimethylpiperazin-1-yl)propan-2-yl)-7a-methyloctahydro-4H-inden-4-ylidene)ethylidene)cyclohexane-1,3-diol]
Mean (number of MBP-positive cells/number of Hoechst33342-positive cells) ([1]; Test 5): 0.22

SMILES: C=C1/C(=C\C=C2/CCC[C@]3(C)[C@@H]([C@H](C)CN4CCCC[C@H]4C)CC[C@@H]23)C[C@@H](O)C[C@@H]1O [Compound F002, (1R,3S,Z)-5-(2-((1R,3aS,7aR,E)-7a-methyl-1-((S)-1-((R)-2-methylpiperidin-1-yl)propan-2-yl)octahydro-4H-inden-4-ylidene)ethylidene)-4-methylenecyclohexane-1,3-diol]
Mean (number of MBP-positive cells/number of Hoechst33342-positive cells) ([1]; Test 7): 0.31

SMILES: C[C@H](CN1CCCCC1(C)C)[C@H]1CC[C@H]2/C(=C/C=C3C[C@@H](O)C[C@H](O)C3)CCC[C@]12C [Compound G003, (1R,3R)-5-(2-((1R,3aS,7aR,E)-1-((S)-1-(2,2-dimethylpiperidin-1-yl)propan-2-yl)-7a-methyloctahydro-4H-inden-4-ylidene)ethylidene)cyclohexane-1,3-diol]
Mean (number of MBP-positive cells/number of Hoechst33342-positive cells) ([1]; Test 3): 0.47

SMILES: C=C1[C@H](O)CC(=C/C=C2\CCC[C@]3(C)[C@@H]([C@H](C)CN4CCN(C)C[C@H]4C)CC[C@@H]23)C[C@H]1O [Compound H012, (1R,3R)-5-(2-((1R,3aS,7aR,E)-1-((S)-1-((R)-2,4-dimethylpiperazin-1-yl)propan-2-yl)-7a-methyloctahydro-4H-inden-4-ylidene)ethylidene)-2-methylenecyclohexane-1,3-diol]
Mean (number of MBP-positive cells/number of Hoechst33342-positive cells) ([1]; Test 7): 0.28

SMILES: C=C1/C(=C\C=C2/CCC[C@]3(C)[C@@H]([C@H](C)CN4CCC[C@H]4C(C)(C)OC)CC[C@@H]23)C[C@@H](O)C[C@@H]1O [Compound F016, (1R,3S,Z)-5-(2-((1R,3aS,7aR,E)-1-((S)-1-((S)-2-(2-methoxypropan-2-yl)pyrrolidin-1-yl)propan-2-yl)-7a-methyloctahydro-4H-inden-4-ylidene)ethylidene)-4-methylenecyclohexane-1,3-diol]
Mean (number of MBP-positive cells/number of Hoechst33342-positive cells) ([1]; Test 8): 0.32
